Consider four compounds from US20230265151A1, “GIP/GLP1 CO-AGONIST COMPOUNDS” (priority 2020, published 2023).

Structures are written as SMILES. Where two headings read alike, the source gives them in different places.

What all share (assay type): cell-based
The target in one experiment is T1, hGCGR (Homo sapiens, UniProt P47871).
T1 construct: expressed in transfected cells
The experiment in a line: Functional cAMP formation (HTRF) in HEK-293 clonal cells expressing hGCGR, 0.1% bovine casein, without or with 1.0% human serum albumin. In a few lines:
(§1)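 Cells were stimulated with peptide for 30 min at 37° C, then lysed in buffer carrying cAMP-d2 and anti-cAMP Eu3+-cryptate for a competitive HTRF read after at least 60 min at room temperature. The 665/620 nm ratio was converted to nM cAMP against a standard curve.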
Background: Cyclic AMP is a second messenger, typically raised through Gs and lowered through Gi signalling.

In a further experiment the target is hGLP-1R (Homo sapiens, UniProt P43220). The experiment in a line: Functional cAMP formation (HTRF) in HEK-293 clonal cells expressing hGLP-1R, 0.1% bovine casein, without or with 1.0% human serum albumin. More on the design: expressed in transfected cells. The following applies: for EC50: geometric mean. In a few lines:
as §1

Another experiment addresses T2, hGIPR (Homo sapiens, UniProt P48546).
T2 construct: expressed in transfected cells
T2 sequence (P48546 22-466): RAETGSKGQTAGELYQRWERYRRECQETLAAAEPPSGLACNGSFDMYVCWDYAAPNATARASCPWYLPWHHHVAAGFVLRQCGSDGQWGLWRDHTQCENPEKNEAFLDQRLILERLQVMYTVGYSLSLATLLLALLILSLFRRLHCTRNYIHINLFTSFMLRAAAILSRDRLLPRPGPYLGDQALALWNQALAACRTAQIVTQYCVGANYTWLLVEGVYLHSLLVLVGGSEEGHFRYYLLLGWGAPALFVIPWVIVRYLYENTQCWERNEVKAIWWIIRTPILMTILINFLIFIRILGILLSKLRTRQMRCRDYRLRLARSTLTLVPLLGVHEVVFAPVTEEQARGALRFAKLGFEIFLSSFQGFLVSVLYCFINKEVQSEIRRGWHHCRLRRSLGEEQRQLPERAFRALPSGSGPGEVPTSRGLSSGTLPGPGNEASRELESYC
As to the kind of experiment: Functional cAMP formation (HTRF) in HEK-293 clonal cells expressing hGIPR, 0.1% bovine casein, without or with 1.0% human serum albumin. The gist of the method:
as §1

Where [1] appears, read: 0.1% bovine casein and 1.0% human serum albumin, 37° C., geometric mean, read-out: hGCGR EC50, nM (SEM, n).
[2] abbreviates: HEK293, 0.1% bovine casein and 1.0% human serum albumin, 37° C., percent of maximal response to GLP-1(7-36)NH2, read-out: hGLP-1R Emax, % ± SEM.
[3] abbreviates: HEK293, 0.1% bovine casein and 1.0% human serum albumin, 37° C., percent of maximal response to GIP(1-42)NH2, read-out: hGIPR Emax, % ± SEM.

T1 sequence (P47871 26-477): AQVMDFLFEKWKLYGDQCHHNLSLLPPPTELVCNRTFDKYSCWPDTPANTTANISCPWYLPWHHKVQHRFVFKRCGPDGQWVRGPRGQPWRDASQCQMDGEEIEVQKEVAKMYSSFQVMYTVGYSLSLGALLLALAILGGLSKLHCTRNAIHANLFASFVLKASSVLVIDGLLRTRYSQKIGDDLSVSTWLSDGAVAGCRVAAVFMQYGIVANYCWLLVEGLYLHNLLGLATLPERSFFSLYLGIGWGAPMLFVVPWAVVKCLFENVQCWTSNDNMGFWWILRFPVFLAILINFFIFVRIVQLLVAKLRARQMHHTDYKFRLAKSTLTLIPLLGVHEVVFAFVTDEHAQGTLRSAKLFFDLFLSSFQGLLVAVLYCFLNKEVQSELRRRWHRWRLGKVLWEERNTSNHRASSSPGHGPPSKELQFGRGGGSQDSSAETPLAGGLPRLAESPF
Sequence of hGLP-1R (P43220 24-463): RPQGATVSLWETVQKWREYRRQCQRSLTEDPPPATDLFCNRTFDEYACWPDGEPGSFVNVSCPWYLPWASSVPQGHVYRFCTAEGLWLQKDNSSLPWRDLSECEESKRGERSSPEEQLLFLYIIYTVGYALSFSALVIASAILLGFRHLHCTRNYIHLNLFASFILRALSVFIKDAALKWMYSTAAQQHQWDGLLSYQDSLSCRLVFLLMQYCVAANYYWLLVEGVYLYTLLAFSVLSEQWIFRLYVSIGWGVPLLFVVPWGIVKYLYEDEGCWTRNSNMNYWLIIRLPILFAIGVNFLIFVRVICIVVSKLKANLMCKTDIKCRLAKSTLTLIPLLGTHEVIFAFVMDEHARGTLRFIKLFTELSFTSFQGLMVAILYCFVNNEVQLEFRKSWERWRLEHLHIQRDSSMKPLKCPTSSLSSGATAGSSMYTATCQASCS

In the case of `CC[C@H](C)[C@H](NC(=O)[C@H](CCCN)NC(=O)[C@H](CC(=O)O)NC(=O)[C@H](CC(C)C)NC(=O)[C@](C)(CC(C)C)NC(=O)[C@@H](NC(=O)[C@](C)(CO)NC(=O)[C@H](Cc1ccncc1)NC(=O)[C@H](CC(=O)O)NC(=O)[C@H](CO)NC(=O)[C@@H](NC(=O)[C@](C)(Cc1ccccc1F)NC(=O)[C@@H](NC(=O)CNC(=O)[C@H](CCC(=O)O)NC(=O)C(C)(C)NC(=O)[C@@H](N)Cc1ccc(O)cc1)[C@@H](C)O)[C@@H](C)O)[C@@H](C)CC)C(=O)N[C@@H](C)C(=O)N[C@@H](CCC(N)=O)C(=O)NC(C)(C)C(=O)N[C@@H](CCCCNC(=O)COCCOCCNC(=O)COCCOCCNC(=O)CC[C@H](NC(=O)CCCCCCCCCCCCC(=O)O)C(=O)O)C(=O)N[C@@H](Cc1ccccc1)C(=O)N[C@H](C(=O)N[C@H](CCC(=O)O)C(=O)N[C@@](C)(Cc1ccc(O)cc1)C(=O)N[C@@H](CC(C)C)C(=O)N[C@H](C(=O)N[C@@H](CCCCNC(=O)COCCOCCNC(=O)COCCOCCNC(=O)CC[C@H](NC(=O)CCCCCCCCCCCCC(=O)O)C(=O)O)C(=O)NCC(=O)NCC(=O)N1CCC[C@H]1C(=O)N[C@@H](CO)C(=O)N[C@@H](CO)C(=O)NCC(=O)N[C@@H](C)C(=O)N1CCC[C@H]1C(=O)N1CCC[C@H]1C(=O)N1CCC[C@H]1C(=O)N[C@@H](CO)C(N)=O)[C@@H](C)CC)[C@@H](C)CC` [Example 217], the EC50 (commonly the concentration that produces a half-maximal response) is > 9950 nM at hGCGR (setting [1]); > 9950 nM at hGCGR (cAMP, incubated at 37° C., 0.1% bovine casein (no human serum albumin), geometric mean, read-out: hGCGR EC50, nM (SEM, n)); 0.436 nM on hGLP-1R (cAMP, incubated at 37° C., 0.1% bovine casein (no human serum albumin), read-out: hGLP-1R EC50, nM (SEM, n)); 7.84 nM at hGIPR (0.1% bovine casein and 1.0% human serum albumin, 37° C., geometric mean, read-out: hGIPR EC50, nM (SEM, n)); 0.0309 nM on hGIPR (cAMP, incubated at 37° C., 0.1% bovine casein (no human serum albumin), geometric mean, read-out: hGIPR EC50, nM (SEM, n)). The maximum response (Emax) (usually the maximal effect, on the per cent scale that the assay sets) at hGLP-1R (setting [2]) turned out to be 118%; on hGLP-1R (HEK293, percent of maximal response to GLP-1(7-36)NH2, 37° C., 0.1% bovine casein, arithmetic mean, read-out: hGLP-1R Emax, % ± SEM), 88%; at hGIPR (setting [3]) it was 62.7%; on hGIPR (HEK293, percent of maximal response to GIP(1-42)NH2, 37° C., 0.1% bovine casein, arithmetic mean, read-out: hGIPR Emax, % ± SEM), 95.5%.

Take `CC[C@H](C)[C@H](NC(=O)[C@H](CC(C)C)NC(=O)[C@](C)(Cc1ccc(O)cc1)NC(=O)[C@@H](CCC(=O)O)NC(=O)[C@@H](NC(=O)[C@H](Cc1ccccc1)NC(=O)[C@H](CCC(=O)O)NC(=O)C(C)(C)NC(=O)[C@H](CCC(N)=O)NC(=O)[C@H](C)NC(=O)[C@H](CCCCNC(=O)COCCOCCNC(=O)CC[C@H](NC(=O)CCCCCCCCCOc1ccc(C(=O)O)cc1)C(=O)O)NC(=O)[C@H](CCCN)NC(=O)[C@H](CC(=O)O)NC(=O)[C@H](CC(C)C)NC(=O)[C@](C)(CC(C)C)NC(=O)[C@@H](NC(=O)C(C)(C)NC(=O)[C@@H](NC(=O)[C@H](CC(=O)O)NC(=O)[C@H](CO)NC(=O)[C@@H](NC(=O)[C@](C)(Cc1ccccc1F)NC(=O)[C@@H](NC(=O)CNC(=O)[C@H](CCC(=O)O)NC(=O)C(C)(C)NC(=O)[C@@H](N)Cc1ccc(O)cc1)[C@@H](C)O)[C@@H](C)O)C(C)C)[C@@H](C)CC)[C@@H](C)CC)C(=O)N[C@@H](CCCCNC(=O)COCCOCCNC(=O)CC[C@H](NC(=O)CCCCCCCCCOc1ccc(C(=O)O)cc1)C(=O)O)C(=O)NCC(=O)NCC(=O)N1CCC[C@H]1C(=O)N[C@@H](CO)C(=O)N[C@@H](CO)C(=O)NCC(=O)N[C@@H](C)C(=O)N1CCC[C@H]1C(=O)N1CCC[C@H]1C(=O)N1CCC[C@H]1C(=O)N[C@@H](CO)C(N)=O` [Example 379]: the concentration giving a half-maximal response (EC50) on hGCGR (hGCGR EC50, nM (SEM, n), cAMP, 37° C., 0.1% bovine casein (no human serum albumin), geometric mean) was > 9950 nM; at hGCGR (hGCGR EC50, nM (SEM, n), cAMP, 37° C., 0.1% bovine casein and 1.0% human serum albumin, geometric mean (SEM, n)), > 9950 nM; at hGLP-1R (hGLP-1R EC50, nM (SEM, n), cAMP, 37° C., 0.1% bovine casein (no human serum albumin)) it was 0.171 nM; at hGIPR (hGIPR EC50, nM (SEM, n), cAMP, 37° C., 0.1% bovine casein (no human serum albumin), geometric mean) it was 0.0167 nM; at hGIPR (hGIPR EC50, nM (SEM, n), cAMP, 37° C., 0.1% bovine casein and 1.0% human serum albumin, geometric mean (SEM, n)), 11.6 nM. Also, the maximal response (Emax) on hGIPR (HEK293, read-out: hGIPR Emax, % ± SEM, cAMP, 37° C., 0.1% bovine casein and 1.0% human serum albumin, percent of maximal response to GIP(1-42)NH2) amounted to 90%; at hGIPR (HEK293, read-out: hGIPR Emax, % ± SEM, cAMP, 37° C., 0.1% bovine casein, percent of maximal response to GIP(1-42)NH2, arithmetic mean), 97.5%.

For the compound `CC[C@H](C)[C@H](NC(=O)[C@H](CC(C)C)NC(=O)[C@](C)(Cc1ccc(O)cc1)NC(=O)[C@H](CCCCNC(=O)COCCOCCNC(=O)COCCOCCNC(=O)CC[C@H](NC(=O)CCCCCCCCCCCCC(=O)O)C(=O)O)NC(=O)[C@@H](NC(=O)[C@](C)(Cc1ccccc1)NC(=O)[C@H](CCC(=O)O)NC(=O)C(C)(C)NC(=O)[C@H](CCC(N)=O)NC(=O)[C@H](C)NC(=O)[C@H](CCCCNC(=O)COCCOCCNC(=O)COCCOCCNC(=O)CC[C@H](NC(=O)CCCCCCCCCCCCC(=O)O)C(=O)O)NC(=O)[C@H](CCCN)NC(=O)[C@H](CC(=O)O)NC(=O)[C@H](CC(C)C)NC(=O)[C@](C)(CC(C)C)NC(=O)[C@@H](NC(=O)C(C)(C)NC(=O)[C@H](Cc1ccncc1)NC(=O)[C@H](CC(=O)O)NC(=O)[C@H](CO)NC(=O)[C@@H](NC(=O)[C@](C)(Cc1ccccc1F)NC(=O)[C@@H](NC(=O)CNC(=O)[C@H](CCC(=O)O)NC(=O)C(C)(C)NC(=O)[C@@H](N)Cc1ccc(O)cc1)[C@@H](C)O)[C@@H](C)O)[C@@H](C)CC)[C@@H](C)CC)C(=O)N[C@@H](CCC(=O)O)C(=O)NCC(=O)NCC(=O)N1CCC[C@H]1C(=O)N[C@@H](CO)C(=O)N[C@@H](CO)C(=O)NCC(=O)N[C@@H](C)C(=O)N1CCC[C@H]1C(=O)N1CCC[C@H]1C(=O)N1CCC[C@H]1C(=O)N[C@@H](CO)C(N)=O` [Example 117], the EC50 at hGCGR (hGCGR EC50, nM (SEM, n), cAMP, incubated at 37° C., 0.1% bovine casein (no human serum albumin), geometric mean) was > 9950 nM. The maximum response (Emax) on hGLP-1R (HEK293, read-out: hGLP-1R Emax, % ± SEM, percent of maximal response to GLP-1(7-36)NH2, 37° C., 0.1% bovine casein, arithmetic mean) turned out to be 98.2%; at hGIPR (HEK293, read-out: hGIPR Emax, % ± SEM, percent of maximal response to GIP(1-42)NH2, 37° C., 0.1% bovine casein, arithmetic mean) it was 96.4%.

As to `CC[C@H](C)[C@H](NC(=O)[C@H](CCCN)NC(=O)[C@H](CC(=O)O)NC(=O)[C@H](CC(C)C)NC(=O)[C@](C)(CC(C)C)NC(=O)[C@@H](NC(=O)[C@H](CO)NC(=O)[C@H](CCc1ccc(O)cc1)NC(=O)[C@H](CC(=O)O)NC(=O)[C@H](CO)NC(=O)[C@@H](NC(=O)[C@](C)(Cc1ccccc1F)NC(=O)[C@@H](NC(=O)CNC(=O)[C@H](CCC(=O)O)NC(=O)C(C)(C)NC(=O)[C@@H](N)Cc1ccc(O)cc1)[C@@H](C)O)[C@@H](C)O)[C@@H](C)CC)C(=O)N[C@@H](C)C(=O)N[C@@H](CCC(N)=O)C(=O)NC(C)(C)C(=O)N[C@@H](CCC(=O)O)C(=O)N[C@@H](Cc1ccccc1)C(=O)N[C@H](C(=O)N[C@@H](CCCCNC(=O)COCCOCCNC(=O)COCCOCCNC(=O)CC[C@H](NC(=O)CCCCCCCCCCCCC(=O)O)C(=O)O)C(=O)N[C@@](C)(Cc1ccc(O)cc1)C(=O)N[C@@H](CC(C)C)C(=O)N[C@H](C(=O)N[C@@H](CCCCNC(=O)COCCOCCNC(=O)COCCOCCNC(=O)CC[C@H](NC(=O)CCCCCCCCCCCCC(=O)O)C(=O)O)C(=O)NCC(=O)NCC(=O)N1CCC[C@H]1C(=O)N[C@@H](CO)C(=O)N[C@@H](CO)C(=O)NCC(=O)N[C@@H](C)C(=O)N1CCC[C@H]1C(=O)N1CCC[C@H]1C(=O)N1CCC[C@H]1C(=O)N[C@@H](CO)C(N)=O)[C@@H](C)CC)[C@@H](C)CC` [Example 270], the EC50 was > 9950 nM at hGCGR (setting [1]); > 9950 nM on hGCGR (cAMP, 37° C., 0.1% bovine casein (no human serum albumin), geometric mean, read-out: hGCGR EC50, nM (SEM, n)); 32.6 nM at hGLP-1R (0.1% bovine casein and 1.0% human serum albumin, 37° C., read-out: hGLP-1R EC50, nM (SEM, n)). Besides, the Emax on hGLP-1R (setting [2]) was 111%; at hGLP-1R (HEK293, cAMP, 37° C., 0.1% bovine casein, percent of maximal response to GLP-1(7-36)NH2, arithmetic mean, read-out: hGLP-1R Emax, % ± SEM), 97%; at hGIPR (setting [3]), 80.9%; at hGIPR (HEK293, cAMP, 37° C., 0.1% bovine casein, percent of maximal response to GIP(1-42)NH2, arithmetic mean, read-out: hGIPR Emax, % ± SEM), 91.7%.
